# Assay results taken from PubChem BioAssay (NCI).
#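 In this assay, cells in 96-well plates receive the compound at five concentrations for 48 hours. Endpoints are linearly interpolated between the surrounding concentrations. GI50: concentration for 50% inhibition of growth. TGI: concentration producing complete growth inhibition.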
# Columns and labels:
# Assay in all cases: DTP human tumour cell line panel, 48 h
# IGROV1 ovarian = test system: IGROV1 ovarian
# SNB-75 CNS = test system: SNB-75 CNS
# NCI-H226 lung = test system: NCI-H226 lung
# K-562 leukemia = test system: K-562 leukemia
# U251 CNS = test system: U251 CNS
# HT29 colon = test system: HT29 colon
# SW-620 colon = test system: SW-620 colon
# RXF 393 renal = test system: RXF 393 renal
# HOP-62 NSCLC = test system: HOP-62 NSCLC
# T-47D breast = test system: T-47D breast
Compound,TGI (IGROV1 ovarian) [µM],TGI (SNB-75 CNS) [µM],TGI (NCI-H226 lung) [µM],TGI (K-562 leukemia) [µM],TGI (U251 CNS) [µM],TGI (HT29 colon) [µM],TGI (SW-620 colon) [µM],GI50 (IGROV1 ovarian) [µM],GI50 (SNB-75 CNS) [µM],GI50 (NCI-H226 lung) [µM],GI50 (RXF 393 renal) [µM],TGI (RXF 393 renal) [µM],GI50 (K-562 leukemia) [µM],GI50 (U251 CNS) [µM],GI50 (HT29 colon) [µM],GI50 (SW-620 colon) [µM],TGI (HOP-62 NSCLC) [µM],GI50 (HOP-62 NSCLC) [µM],GI50 (T-47D breast) [µM],TGI (T-47D breast) [µM]
O=C(O)/C=C/c1nc2ccccc2c(=O)o1,> 100,> 100,> 100,> 100,> 100,> 100,> 100,,,,,,,,,,,,,
COc1ncnc(NS(=O)(=O)c2ccc(N=C3C(=O)N(CN4CCN(c5c(F)cc6c(=O)c(C(=O)O)cn(C7CC7)c6c5OC)CC4C)c4ccc(Br)cc43)cc2)c1OC (stereo unspecified),> 50,> 50,> 50,> 50,> 50,> 50,> 50,17.3,> 50,15.3,12.9,33,1.69,19.7,15.6,9.41,,,,
O=S(=O)(c1cccc(N=C=S)c1)c1cccc(N=C=S)c1,34.7,,,> 100,35.4,,,,,,,30,,,,,26.5,,,
COc1ccc(NC(=O)C2CCC(CNS(=O)(=O)c3ccccc3)CC2)cc1OC (stereo unspecified),> 100,,> 100,,> 100,,> 100,> 100,,> 100,> 100,> 100,,54,,> 100,86.8,26.8,,
c1ccc2cc(-c3n(Cc4ccc5ccccc5n4)c4ccccc4[n+]3Cc3ccc4ccccc4n3)ccc2c1,1.28,0.746,,1.39,1.14,1.19,1.42,0.29,0.19,,0.245,1.24,0.16,0.242,0.256,0.346,1.49,0.363,0.222,1.28
OC(C#Cc1ccccc1)(c1ccccc1)c1ccccc1,> 100,> 100,87.3,> 100,83.4,78.4,> 100,,,,,,,,,,> 100,,,78.1
N#CC1=C(/N=C/c2ccccc2)Oc2c(ccc3ccccc23)C1c1ccccc1 (stereo unspecified),> 100,,> 100,> 100,> 100,> 100,> 100,0.725,,1.13,,,0.358,0.527,0.37,0.405,> 100,0.646,,
COCOCC/C=C/C=O,> 100,> 100,,> 100,> 100,> 100,> 100,,,,,> 100,,,,,,,,
C#CCNC(=O)[C@H](CC)[C@H]1CC[C@H](C)[C@H]([C@@H](C)[C@H](O)[C@H](C)C(=O)[C@H](CC)C2O[C@]3(C=CC(=O)[C@]4(CC[C@@](C)([C@H]5CC[C@](O)(CC)[C@H](C)O5)O4)O3)[C@H](C)C[C@@H]2C)O1 (stereo partly specified),7.92,3.36,22.6,,3.93,5.46,> 100,2.03,1.39,2.94,2.48,7.63,,1.88,2.26,3.12,4.91,1.99,2.36,9
